Experimental data published in publication PMC9827864, “In Situ Inhibitor Synthesis and Screening by Fluorescence Polarization: An Efficient Approach for Accelerating Drug Discovery” (Angewandte Chemie (International Ed. in English), 2022).

What was measured:
[1] = target: T1, human prolyl hydroxylase 2 (PHD2) (Homo sapiens, UniProt Q9GZT9); test: Fluorescence polarization (FP) competition assay of PHD2; conditions: purified compounds, 20 nM PHD2 (181-426), 30 nM probe, Cheng-Prusoff, mean±SD, read-out: Ki, binding affinity for PHD2
T1 construct: (181-426); made in house
T1 sequence (Q9GZT9 181-426): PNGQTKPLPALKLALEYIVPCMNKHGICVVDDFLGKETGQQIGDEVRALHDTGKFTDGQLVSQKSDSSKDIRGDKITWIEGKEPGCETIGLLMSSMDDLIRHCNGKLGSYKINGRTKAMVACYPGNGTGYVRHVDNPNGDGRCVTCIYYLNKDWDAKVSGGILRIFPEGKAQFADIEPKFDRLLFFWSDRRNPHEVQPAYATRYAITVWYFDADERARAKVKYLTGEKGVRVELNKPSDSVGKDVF
Experimental: 2.1 Fluorescence polarization (FP) competition assay of PHD2 [4]
FP assays were performed using a SPARK Multi-Mode Microplate Reader (Tecan) with excitation and emission filters appropriate for the fluorophore used in the binding experiment. Fluorescence polarization experiments were performed in 384-well, flat bottom, black assay plates (#3575, Corning) in a final volume of 60 µL. The final assay buffer contained: 30 nM fluorescence Probe, 20 nM PHD2 (181-426), 10 mM HEPES, pH 7.4, 150 mM NaCl, 0.05% Tween-20, and at the 1% DMSO (except for DMSO tolerance experiments, in which different DMSO concentrations were used as indicated). All plates measured in fluorescence polarization assays were incubated for a minimum of 30 min at RT. Fluorescence polarization was measured from the top of the well with a Tecan SPARK plate reader with polarized filters and optical modules for fluorescein (λex = 485 nm ± 25 nm, λem = 535 nm ± 25 nm). The standard error of the mean (SEM) values, were calculated by dividing the sample standard deviation by the square root of the sample size and are recorded as ± values for IC 50. Dose-dependent experiments were performed in th e same manner using at least 10 concentrations of the test compounds in 3 -fold serial dilutions from 100 µM. For each assay, negative controls (equivalent to 0% displacement) contained the fluorescent ligand, PHD2 (181 -426), and 20 µL FP buffer; blank cont rols contained only the fluorescent ligand and 40 µL buffer.
The reaction mixtures were incubated at RT for 60 min, then total fluorescence and fluorescence polarization measurements wer e taken. The percentage inhibition was calculated using Equation 1, where mPfree is the signal for the free probe (blank control) and mPbound is the signal for the bound probe (negative control).
IC50s were determined for duplicate measurements by non-linear least-squares analysis using GraphPad Prism 8.0.
The Ki values of the inhibitors were calculated using the Cheng-Prusoff equation.[5] Cheng-Prusoff equation: Ki = IC50 / (1 + [L]/Kd)
The Kd value was determined using a constant concentration of probe and titrating with PHD2 protein at increasing concentrations. [L] represents the concentration of the […] used in the FP assay. […]

[2] = test system: C57BL/6J mouse models of anemia induced by cisplatin; test: Improvement of anemia induced by cisplatin administration; assay type: in vivo; conditions: cisplatin-induced anemia mice; for Improvement of anemia (%): po
Experimental: 5. Pharmacodynamic assay
The experimental mice (SPF, […], male) were obtained from SPF (Beijing) Biotechnology Co., Ltd (permit number: SCXK (Jing) 2019-0010). All animal related experiments were conducted under a China Pharmaceutical University (the certification of using the housing facility of laboratory animals: SYXK (Su) 2018 -0019) IACUC approved protocol in compliance with the guide for the care and use of laboratory animals (number: 202013705). […]
Representative compounds and Roxadustat were formulated in normal saline solution. […]
China Pharmaceutical University (ADVIA 2120 hematology system). […]
5.3 Improvement of anemia induced by cisplatin administration
C57BL/6J mice were treated with cisplatin ( po, 7 mg·kg-1) on days 0, 7, 14, and 28 of the experiment. On the 29th day, the animals were randomized into sham, control, and treated groups (n=5). […]
treatment anemia caused by cisplatin. The mice were treated with the compounds every alternate day for 30 days. the test sample is obtained via orbital venous plexus. The hemoglobin of samples was analyzed in the center for new drug safety evaluation and research at China Pharmaceutical University (ADVIA 2120 hematology system).

[3] = test system: reticulocytes in C57BL/6J mice; test: In vivo reticulocytes increased assay; design: species or system mouse
Experimental: A structure of PHD2 in complex with Fe and a 2OG competing inhibitor (PDB ID: 4KBZ) was obtained from PDB website. The structure files of protein and compounds for docking were prepared using the Discovery Studio (DS) 2020 software. A water molecule HOH624, conserved in the active binding site of PHD2, was retained during the docking. Residues of PHD2 around the native ligand (radius = 10 Å) were defined as the binding sites for docking. Subsequently, the ligand was removed; the Fe (II) was retained during the docking. Compounds were docked into the binding sites using GOLD 5.1. Docking procedures were performed using the default setting with 100 genetic algorithm (GA) runs of ligands. […]
17 was preincubated with microsomes from different species (0.5 mg/mL) at 1 μM for 5 min at 37 °C in 100 mM PBS buffer (pH 7.4). […] The samples were centrifuged at 5000 rpm f or 10 min; the supernatants were then analyzed by HPLC. […]
Representative compounds and Roxadustat were formulated in normal saline solution. […] Subsequently, these samples were analyzed for reticulocytes in the center for new drug safety evaluation and research of China Pharmaceutical University (ADVIA 2120 hematology system). […]
Plasma EPO was evaluated using the erythropoietin quantikine ELISA kit for mice (MEP00B). […]
in normal saline solution. […] Plasma was collected by centrifugation at 3000 rpm, these plasmas were detected by E PO […]

## O=C(N/N=C/c1cccc(O)c1Cl)c1cnc(-c2cccnn2)[nH]c1=O [compound 17]
[1]
  Ki: 27 ± 2 nM
[2]; po 5, 10, 20 mg kg−1, every alternate day for 30 days
  hemoglobin (Hb) levels: increased in a dose‐dependent manner
[2]; 5 mg·kg^-1
  Improvement of anemia (%): 31.8%
[2]; 10 mg·kg^-1
  Improvement of anemia (%): 51.5%
[2]; 20 mg·kg^-1
  Improvement of anemia (%): 90.9%
[3]; C57BL/6J male mice, 20 mg kg−1 po, three administrations, 72 h
  reticulocyte induction: superior with respect to inducing reticulocytes compared to the other tested ISISS compounds
[3]; C57BL/6J mice, 5, 10 and 20 mg kg−1 po
  changes in reticulocytes, multiple doses: dose‐dependent increase in reticulocytes
